Test results from PMC2719696, “Kinetics and Cellular Site of Glycolipid Loading Control the Outcome of Natural Killer T Cell Activation” (Immunity, 2009).

Tested on: murine iNKT cell TCRs
Experiment: Equilibrium binding of glycolipid-loaded mCD1d tetramers to murine iNKT cells
Design: species or system mouse
Conditions: tetramer staining of murine iNKT cells
Experimental: The interactions of iNKT cell TCRs with CD1d molecules loaded with αGalCer analogs were analyzed with fluorescent murine and human CD1d tetramers. […] Equilibrium binding studies for measuring TCR avidities were carried out by incubation of human or murine iNKT cells with varying concentrations of αGalCer-analog-loaded tetramers and determining relative levels of cell-associated fluorescence ([Stanic et al., 2003; Yu et al., 2005]).
Figure 2 Characterization of iNKT Cell TCR Interactions with αGalCer Analogs (A) Flow cytometry analysis of human and murine iNKT cells with αGalCer analog-CD1d tetramers. In the top row, murine iNKT cells from C57BL/6 splenocytes were costained with αGalCer analog-loaded or unloaded mCD1d tetramers conjugated with PE (x axis) and αGalCer-C26:0-loaded-mCD1d tetramers conjugated with APC (y axis). In the bottom row, human PBMCs were similarly costained with human glycolipid-loaded CD1d tetramers. (B) Binding avidity of glycolipid-mCD1d complexes to murine iNKT cell TCRs. Histograms at left show tetramer staining of NK1.1^+ CD3^+ T cells in C57BL/6 splenocytes with glycolipid-loaded tetramers at 20 nM. […]
Recombinant CD1d proteins were produced and assembled into tetramers for staining as previously described ([Forestier et al., 2007]). […] All samples were analyzed with the FACSCalibur flow cytometer (BD Biosciences).

CCCCCCCCCCCCCCCCCCCCCCCC(=O)NC(COC1OC(CO)C(O)C(O)C1O)C(O)C(O)CCCCC (stereo not shown) [OCH]
TCR avidity of glycolipid-mCD1d complexes: weak binding
